The values that follow come from patent US9801918B2, “Methods of treatment using extracts of Anisomeles heyneana” (Council of Scientific & Industrial Research, priority 2011, dated 2017).

The subject of one test is M. tuberculosis. Put plainly: Anti-mycobacterial activity (inhibition of growth of M. tuberculosis). In kind it is cell-based. To be noted: concentration exhibiting 90% inhibition against growth of M. tuberculosis, 'Not active' at 100 μg/ml; for IC90: Mycobacterium tuberculosis, read-out: IC90 value determined against M. tuberculosis.
The subject of test [1] is human monocytic leukaemia Thp-1 cell lines. Put plainly: Anti proliferative activity-MTT cell proliferation assay on human Thp-1 cell line. To be noted: for % Inhibition on Thp-1 cell line at 100 μg/ml / inhibition at 100 µg/mL: 72 h, MTT, average±standard deviation, triplicate, 100 μg/ml; for inhibition at 100 µg/mL: Homo sapiens, THP-1, 72 h. In kind it is cell-based.

The structures appear in SMILES notation. Converted amounts (≈) assume the structure as drawn.

Broadly, the inhibition is how much of the control response was suppressed. The low end stands for a response near the control, the high end for a response far below the control. Take `C[C@]12CCC[C@](C)(C(=O)O)[C@@H]1CC[C@@]13C[C@@H](CC[C@@H]12)[C@@](O)(CO)C3` [Compound 2, phyllocladan-16α,17-dihydroxy-19-oic acid]: the “IC90 value determined against M. tuberculosis” value in the test with M. tuberculosis is on record as “Not active^c”. In test [1], the “% Inhibition on Thp-1 cell line at 100 μg/ml” value was found to be 59.02 ± 0.8725% and the inhibition at 100 µg/mL lay within 59 to 97%. Further, in test [1] (qualitative statement), the “anti proliferative activity (in words)” value is on record as “comparable to well known drug, paclitaxel”.
What is called IC90 is the concentration at which the effect reaches the 90% level. With `C=C1C(=O)O[C@H]2/C=C(\C)C[C@@H]3C=C(CC/C=C(\C)CC[C@H]12)C(=O)O3` [Compound 1, (1R,3E,5S,9R,12E)-3,12-Dimethyl-8-methylene-6,18-dioxatricyclo[14.2.1.05,9]nonadeca-3,12,16(19)-triene-7,17-dione], in the test with M. tuberculosis, the IC90 was found to be 6.53 µg/mL (≈ 19.9 µM). Further, in test [1], the “% Inhibition on Thp-1 cell line at 100 μg/ml” value is 96.4 ± 0.4592%.
In test [1], `CC(=O)O[C@H]1C(=O)[C@@]2(C)[C@H]([C@H](OC(=O)c3ccccc3)[C@]3(O)C[C@H](OC(=O)[C@H](O)[C@@H](NC(=O)c4ccccc4)c4ccccc4)C(C)=C1C3(C)C)[C@]1(OC(C)=O)CO[C@@H]1C[C@@H]2O` [Paclitaxel, reference compound] showed an inhibition at 100 µg/mL of 61%.
For the molecule `NNC(=O)c1ccncc1` [Isoniazid, reference compound], the IC90 with M. tuberculosis was determined as 0.05 ± 0.003 µg/mL (≈ 0.365 µM).
